Measurements reported in PubChem BioAssay (NCI).
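Assay format: 96-well plates, 48-hour exposure. GI50 = concentration required for 50% inhibition of growth. TGI marks complete inhibition of growth.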

Assays:
Assay in all cases: DTP human tumour cell line panel, 48 h
[1] = system: 786-0 renal
[2] = system: A498 renal
[3] = system: A549 NSCLC
[4] = system: ACHN renal
[5] = system: BT-549 breast
[6] = system: CAKI-1 renal
[7] = system: CCRF-CEM leukemia
[8] = system: COLO 205 colon
[9] = system: DU-145 prostate
[10] = system: EKVX NSCLC
[11] = system: HCC-2998 colon
[12] = system: HCT-116 colon
[13] = system: HCT-15 colon
[14] = system: HL-60(TB) leukemia
[15] = system: HOP-62 NSCLC
[16] = system: HS 578T breast
[17] = system: HT29 colon
[18] = system: IGROV1 ovarian
[19] = system: K-562 leukemia
[20] = system: KM12 colon
[21] = system: LOX IMVI melanoma
[22] = system: M14 melanoma
[23] = system: MCF7 breast
[24] = system: MDA-MB-231 breast
[25] = system: MDA-MB-435
[26] = system: MOLT-4 leukemia
[27] = system: NCI-H226 lung
[28] = system: NCI-H23 lung
[29] = system: NCI-H460 lung
[30] = system: NCI-H522 lung
[31] = system: NCI/ADR-RES ovarian
[32] = system: OVCAR-3 ovarian
[33] = system: OVCAR-4 ovarian
[34] = system: OVCAR-5 ovarian
[35] = system: OVCAR-8 ovarian
[36] = system: PC-3 prostate
[37] = system: RPMI-8226 leukemia
[38] = system: RXF 393 renal
[39] = system: SF-268 CNS
[40] = system: SF-295 CNS
[41] = system: SF-539 CNS
[42] = system: SK-MEL-2 melanoma
[43] = system: SK-MEL-28 melanoma
[44] = system: SK-MEL-5 melanoma
[45] = system: SK-OV-3 ovarian
[46] = system: SN12C renal
[47] = system: SNB-19 CNS
[48] = system: SNB-75 CNS
[49] = system: SR leukemia
[50] = system: SW-620 colon
[51] = system: T-47D breast
[52] = system: TK-10 renal
[53] = system: U251 CNS
[54] = system: UACC-257 melanoma
[55] = system: UACC-62 melanoma
[56] = system: UO-31 renal

## CC(C)(O)/C=C/C(=O)[C@](C)(O)[C@H]1[C@H](O)C[C@@]2(C)[C@H]3CC=C4[C@@H](C[C@H](O)C(=O)C4(C)C)[C@]3(C)C(=O)C[C@]12C
[1]
  GI50: 0.0511 µM
  TGI: 0.249 µM
[2]
  GI50: 0.0177 µM
  TGI: 0.0473 µM
[3]
  GI50: 0.0511 µM
  TGI: > 16.7 µM
[4]
  GI50: 0.0537 µM
  TGI: > 16.7 µM
[5]
  GI50: 0.0161 µM
  TGI: 0.0546 µM
[6]
  GI50: 0.0137 µM
  TGI: 0.0499 µM
[7]
  GI50: 0.0208 µM
  TGI: > 8.45 µM
[8]
  GI50: 0.0277 µM
  TGI: > 16.7 µM
[9]
  GI50: 0.0367 µM
  TGI: 4.3 µM
[10]
  GI50: 0.0458 µM
  TGI: > 16.7 µM
[11]
  GI50: 0.118 µM
  TGI: > 16.7 µM
[12]
  GI50: 0.0243 µM
  TGI: 7.14 µM
[13]
  GI50: 0.0344 µM
  TGI: > 16.7 µM
[14]
  GI50: 0.203 µM
  TGI: 1.46 µM
[15]
  GI50: 0.0818 µM
  TGI: 0.419 µM
[16]
  GI50: 0.0529 µM
  TGI: 2.73 µM
[17]
  GI50: 0.0258 µM
  TGI: > 16.7 µM
[18]
  GI50: 0.0707 µM
  TGI: 0.46 µM
[19]
  GI50: 0.0394 µM
  TGI: > 16.7 µM
[20]
  GI50: 0.113 µM
  TGI: > 16.7 µM
[21]
  GI50: 0.18 µM
  TGI: > 3.52 µM
[22]
  GI50: 0.0176 µM
  TGI: 1.71 µM
[23]
  GI50: 0.0315 µM
  TGI: > 16.7 µM
[24]
  GI50: 0.0281 µM
  TGI: 0.307 µM
[25]
  GI50: 0.022 µM
  TGI: 5.77 µM
[26]
  GI50: 1.17 µM
  TGI: 16.3 µM
[27]
  GI50: 0.0296 µM
  TGI: 4.66 µM
[28]
  GI50: 0.45 µM
  TGI: > 16.7 µM
[29]
  GI50: 0.0247 µM
  TGI: > 16.7 µM
[30]
  GI50: 0.0287 µM
  TGI: 0.184 µM
[31]
  GI50: 0.0714 µM
[32]
  GI50: 0.0395 µM
  TGI: 1.02 µM
[33]
  GI50: 0.00558 µM
  TGI: 0.0451 µM
[34]
  GI50: 0.0429 µM
  TGI: > 16.7 µM
[35]
  GI50: 0.496 µM
  TGI: > 16.7 µM
[36]
  GI50: 0.283 µM
  TGI: > 16.7 µM
[37]
  GI50: 0.0419 µM
  TGI: > 6.22 µM
[38]
  GI50: 0.0143 µM
  TGI: 0.0318 µM
[39]
  GI50: 0.0196 µM
  TGI: 0.0882 µM
[40]
  GI50: 0.102 µM
  TGI: 0.872 µM
[41]
  GI50: 0.0167 µM
  TGI: 0.13 µM
[42]
  GI50: 0.0162 µM
  TGI: 0.0525 µM
[43]
  GI50: 0.0139 µM
  TGI: 0.0393 µM
[44]
  GI50: 0.058 µM
  TGI: 2.31 µM
[45]
  GI50: 0.056 µM
  TGI: 0.236 µM
[46]
  GI50: 0.0466 µM
  TGI: > 12.9 µM
[47]
  GI50: 0.0752 µM
  TGI: 3.25 µM
[48]
  GI50: 0.0289 µM
  TGI: 0.108 µM
[49]
  GI50: 0.0414 µM
  TGI: > 16.7 µM
[50]
  GI50: 0.0281 µM
  TGI: > 16.7 µM
[51]
  GI50: 0.217 µM
  TGI: > 14 µM
[52]
  GI50: 0.0307 µM
  TGI: 0.0895 µM
[53]
  GI50: 0.0541 µM
  TGI: 0.262 µM
[54]
  GI50: 0.042 µM
  TGI: 0.541 µM
[55]
  GI50: 0.0263 µM
  TGI: 3.72 µM
[56]
  GI50: 0.0432 µM
  TGI: 0.312 µM
